Measurements from patent US9296745B2, “Diacylglycerol acyltransferase 2 inhibitors” (Pfizer Inc., priority 2012, dated 2016).
Like-named read-outs stand apart in the source and are kept apart here.

Assays:
Human DGAT2 (hDGAT2) = Human DGAT2 (hDGAT2) (Homo sapiens (Human), UniProt Q96PD7); assay: In vitro DGAT2 assay, IC50 determination with hDGAT2 membrane fraction; assay type: biochemical
How it was run: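 CHAPS-solubilized membrane fraction of FLAG-tagged hDGAT2 from baculovirus-infected SF9 cells (0.01 mg/mL) in 100 mM Hepes-NaOH pH 7.4, 20 mM MgCl2, 200 nM methyl arachidonyl fluorophosphonate; compounds pre-incubated 20 min with 0.04% BSA. Reaction 40 min at room temperature, stopped with H3PO4. [^14C]tridecanoylglycerol in organic phase counted; 11-point geometric mean IC50.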

DGAT2 = DGAT2 (Homo sapiens (Human), UniProt Q96PD7); assay: IC50 determination for DGAT2 inhibitors in human hepatocytes ([1,3-14C]-glycerol incorporation into lipids); assay type: cell-based; conditions: average IC50; cryopreserved human hepatocytes, selective DGAT1 inhibitor (3 μM) in all wells, 3 hour incubation with [1,3-14C]-glycerol; read-out: IC50 (nM) in primary human hepatocyte
Description: For evaluation of the effects of DGAT2 inhibitors in a cell-based setting, cryopreserved human hepatocytes (Lot QOC, Celsis, Chicago, Ill.) were thawed and plated onto type I collagen-coated plates according to the manufacturer's instructions. After 24 hours overnight recovery period, the cells were overlayed with media containing 250 μg/ml Matrigel (BD Biosciences, San Jose, Calif.). The following day, media was aspirated and replaced with serum-free Williams Media E (Life Technologies, Grand Island, N.Y.) containing 400 μM sodium dodecanoate (Sigma-Aldrich, St. Louis, Mo.). Forty minutes later, DGAT2 inhibitors (prepared as 100× stocks in 25% DMSO, 75% Williams' Media E) were added to the desired final concentration. […] After a 20 minute preincubation, 0.2 μCi [1,3-^14C]-glycerol (American Radio Chemicals, St. Louis, Mo.) was added to each well and mixed by gentle pipetting prior to a 3 hour incubation. At this point, media was aspirated and the cells were lysed in isopropyl alcohol:tetrahydrofuran (9:1) prior to centrifugation at 3000 rpm for 5 minutes. Radiolabeled lipids were resolved using a 2-solvent system by thin layer chromatography using standard technique (solvent 1 contained ethyl acetate: isopropyl alcohol: chloroform:methanol:0.25% potassium chloride in water (100:100:100:40.2:36.1, v/v/v/v) and solvent 2 contained hexane: diethyl ether: acetic acid (70:27:3, v/v/v)). After separation, radiolabeled lipids were visualized using a Molecular Dynamics' PhosphorImager system. The half maximal inhibitory concentrations (IC50 values) were determined using Graph Pad Prism (GraphPad Software, Inc., La Jolla, Calif.).

[1] = geometric mean, background for complete inhibition of DGAT2 obtained with 50 μM (1R,2R)-2-({3′-Fluoro-4′-[(6-fluoro-1,3-benzothiazol-2-yl)amino]-1,1′-biphenyl-4-yl}carbonyl)cyclopentanecarboxylic acid, read-out: DGAT2 IC50

Chain of DGAT2 (Q96PD7 whole entry): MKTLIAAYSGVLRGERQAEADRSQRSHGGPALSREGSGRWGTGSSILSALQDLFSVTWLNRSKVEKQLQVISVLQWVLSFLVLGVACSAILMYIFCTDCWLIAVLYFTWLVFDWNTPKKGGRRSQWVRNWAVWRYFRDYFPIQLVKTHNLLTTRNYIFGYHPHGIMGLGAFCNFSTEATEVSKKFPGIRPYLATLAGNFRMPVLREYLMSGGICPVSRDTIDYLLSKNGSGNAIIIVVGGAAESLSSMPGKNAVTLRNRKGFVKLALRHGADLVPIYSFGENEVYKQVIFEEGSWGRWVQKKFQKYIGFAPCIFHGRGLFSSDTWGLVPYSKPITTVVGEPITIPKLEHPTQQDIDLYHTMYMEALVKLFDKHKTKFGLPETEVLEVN
Chain of Human DGAT2 (hDGAT2) (Q96PD7 whole entry): as above

Compound | IC50 (Human DGAT2 (hDGAT2); [1]) | also measured
CC(c1nc2ccc(N3CCC[C@@H](C(=O)N4CCCC4)C3)nc2[nH]1)n1cccn1 (stereo partly drawn) [Example 58, (R)-(1-(2-(1-(1H-Pyrazol-1-yl)ethyl)-3H-imidazo[4,5-b]pyridin-5-yl)piperidin-3-yl)(pyrrolidin-1-yl)methanone] | 363 nM | IC50 (DGAT2): 86.8 nM
O=C([C@@H]1CCCN(c2ccc3nc(C4(n5cc(F)cn5)CC4)[nH]c3n2)C1)N1CCCC1 [Example 73, (R)-(1-(2-(1-(4-Fluoro-1H-pyrazol-1-yl)cyclopropyl)-3H-imidazo[4,5-b]pyridin-5-yl)piperidin-3-yl)(pyrrolidin-1-yl)methanone] | 96.9 nM | IC50 (Human DGAT2 (hDGAT2); geometric mean, background for complete inhibition of DGAT2 obtained with Example 196-A instead of the cyclopentanecarboxylic acid reference, read-out: DGAT2 IC50 (nM), values in the parentheses): 85 nM; IC50 (DGAT2): 7.9 nM
N#Cc1cnn(C2(c3nc4ccc(N5CCC[C@@H](C(=O)N6CCCC6)C5)nc4[nH]3)CC2)c1 [Example 76, (R)-1-(1-(5-(3-(Pyrrolidine-1-carbonyl)piperidin-1-yl)-3H-imidazo[4,5-b]pyridin-2-yl)cyclopropyl)-1H-pyrazole-4-carbonitrile] | 227 nM | IC50 (DGAT2): 25.1 nM
O=C([C@@H]1CCCN(c2ccc3nc(C4(n5cc(C(F)(F)F)cn5)CC4)[nH]c3n2)C1)N1CCCC1 [Example 78, (R)-Pyrrolidin-1-yl(1-(2-(1-(4-(trifluoromethyl)-1H-pyrazoL-1-yl)cyclopropyl)-3H-imidazo[4,5-b]pyridin-5-yl)piperidin-3-yl)methanone] | 83.8 nM | IC50 (DGAT2): 9.4 nM
O=C([C@@H]1CCCN(c2ccc3nc(C4(c5cccnc5)CC4)[nH]c3n2)C1)N1CCCC1 [Example 81, (R)-(1-(2-(1-(Pyridin-3-yl)cyclopropyl-1)-3H-imidazo[4,5-b]pyridin-5-yl)piperidin-3-yl)(pyrrolidin-1-yl)methanone] | 204 nM | IC50 (DGAT2): 47.7 nM
O=C([C@@H]1CCCN(c2ccc3nc(C4(c5ccccn5)CC4)[nH]c3n2)C1)N1CCCC1 [Example 82, (R)-(1-(2-(1-(Pyridin-2-yl)cyclopropyl)-3H-imidazo[4,5-b]pyridin-5-yl)piperidin-3-yl)(pyrrolidin-1-yl)methanone] | 165 nM | IC50 (DGAT2): 15.8 nM
O=C([C@@H]1CCCN(c2ccc3nc(C4(c5cnccn5)CC4)[nH]c3n2)C1)N1CCCC1 [Example 203, (R)-(1-(2-(1-(Pyrazin-2-yl)cyclopropyl)-3H-imidazo[4,5-b]pyridin-5-yl)piperidin-3-yl)(pyrrolidin-1-yl)methanone] | 176 nM | –
O=C([C@@H]1CCCN(c2ccc3nc(C4(c5ncccn5)CC4)[nH]c3n2)C1)N1CCCC1 [Example 204, (R)-(1-(2-(1-(Pyrimidin-2-yl)cyclopropyl)-3H-imidazo[4,5-b]pyridin-5-yl)piperidin-3-yl)(pyrrolidin-1-yl)methanone] | 656 nM | –
O=C([C@@H]1CCCN(c2ccc3nc(C4(n5cc(Cl)cn5)CC4)[nH]c3n2)C1)N1CCC1 [Example 205, (R)-Azetidin-1-yl(1-(2-(1-(4-chloro-1H-pyrazol-1-yl)cyclopropyl)-3H-imidazo[4,5-b]pyridin-5-yl)piperidin-3-yl)methanone] | 188 nM | –
O=C([C@@H]1CCCN(c2ccc3nc(C4(n5cc(Cl)cn5)CC4)[nH]c3n2)C1)N1CCOCC1 [Example 206, (R)-(1-(2-(1-(4-Chloro-1H-pyrazol-1-yl)cyclopropyl)-3H-imidazo[4,5-b]pyridin-5-yl)piperidin-3-yl)(morpholino)methanone] | 246 nM | –
C[C@@H]1CCN(c2ncc3nc(C4(n5cccn5)CC4)[nH]c3n2)C[C@@H]1C(=O)N1CCCC1 [Example 207, ((3R,4R)-1-(8-(1-(1H-Pyrazol-1-yl)cyclopropyl)-9H-purin-2-yl)-4-methylpiperidin-3-yl)(pyrrolidin-1-yl)methanone] | 702 nM | –
C[C@H]1CCN(c2ncc3nc(C4(n5cccn5)CC4)[nH]c3n2)C[C@H]1C(=O)N1CCCC1 [Example 208, ((3S,4S)-1-(8-(1-(1H-pyrazol-1-yl)cyclopropyl)-9H-purin-2-yl)-4-methylpiperidin-3-yl)(pyrrolidin-1-yl)methanone] | – | IC50 (Human DGAT2 (hDGAT2); read-out: DGAT2 IC50): 37400 nM
O=C([C@@H]1CCCN(c2ncc3nc(C4(n5cccn5)CC4)[nH]c3n2)C1)N1CCCC1 [Example 210, (R)-(1-(8-(1-(1H-Pyrazol-1-yl)cyclopropyl)-9H-purin-2-yl)piperidin-3-yl)(pyrrolidin-1-yl)methanone] | 342 nM | –
O=C(Nc1ccc(C(F)(F)F)nc1)c1nc2ccc(N3CCC[C@@H](C(=O)N4CCCC4)C3)nc2[nH]1 [Example 211, (R)-5-(3-(Pyrrolidine-1-carbonyl)piperidin-1-yl)-N-(6-(trifluoromethyl)pyridin-3-yl)-3H-imidazo[4,5-b]pyridine-2-carboxamide] | 845 nM | –
O=C([C@@H]1CCCN(c2ccc3nc(C4(n5cc(Cl)cn5)CC4)[nH]c3n2)C1)N1CC=CC1 [Example 212, (R)-(1-(2-(1-(4-Chloro-1H-pyrazol-1-yl)cyclopropyl)-3H-imidazo[4,5-b]pyridin-5-yl)piperidin-3-yl)(2,5-dihydro-1H-pyrrol-1-yl)methanone] | 18.9 nM | –
O=C([C@H]1CN(c2ncc3nc(C4(n5cc(Cl)cn5)CC4)[nH]c3n2)CCO1)N1CCCC1 [Example 213, (R)-(4-(8-(1-(4-Chloro-1H-pyrazol-1-yl)cyclopropyl)-9H-purin-2-yl)morpholin-2-yl)(pyrrolidin-1-yl)methanone] | 161 nM | –
O=C([C@@H]1CCCN(c2ccc3nc(C4(n5nccn5)CC4)[nH]c3n2)C1)N1CCCC1 [Example 214, (R)-(1-(2-(1-(2H-1,2,3-Triazol-2-yl)cyclopropyl)-3H-imidazo[4,5-b]pyridin-5-yl)piperidin-3-yl)(pyrrolidin-1-yl)methanone] | 396 nM | –
O=C([C@@H]1CCCN(c2ccc3nc(C4(n5ccnc5)CC4)[nH]c3n2)C1)N1CCCC1 [Example 215, (R)-(1-(2-(1-(1H-Imidazol-1-yl)cyclopropyl)-3H-imidazo[4,5-b]pyridin-5-yl)piperidin-3-yl)(pyrrolidin-1-yl)methanone] | 483 nM | –
C[C@H]1CC[C@@H](C(=O)N2CCCC2)CN1c1ccc2nc(C3(n4cc(Cl)cn4)CC3)[nH]c2n1 [Example 216, ((3R,6S)-1-(2-(1-(4-Chloro-1H-pyrazol-1-yl)cyclopropyl)-3H-imidazo[4,5-b]pyridin-5-yl)-6-methylpiperidin-3-yl)(pyrrolidin-1-yl)methanone] | 9200 nM | –
C[C@@H]1CC[C@H](C(=O)N2CCCC2)CN1c1ccc2nc(C3(n4cc(Cl)cn4)CC3)[nH]c2n1 [Example 217, ((3S,6R)-1-(2-(1-(4-chloro-1H-pyrazol-1-yl)cyclopropyl)-3H-imidazo[4,5-b]pyridin-5-yl)-6-methylpiperidin-3-yl)(pyrrolidin-1-yl)methanone] | – | IC50 (Human DGAT2 (hDGAT2); read-out: DGAT2 IC50): 131 nM
O=C([C@@H]1CCCN(c2ccc3nc(-c4ccnc(C5CC5)n4)[nH]c3n2)C1)N1CCC1 [Example 220, (R)-Azetidin-1-yl(1-(2-(2-cyclopropylpyrimidin-4-yl)-3H-imidazo[4,5-b]pyridin-5-yl)piperidin-3-yl)methanone] | 270 nM | –
CN(CC1CC1)C(=O)[C@@H]1CCCN(c2ccc3nc(-c4ccnc(C5CC5)n4)[nH]c3n2)C1 [Example 221, (R)—N-(Cyclopropylmethyl)-1-(2-(2-cyclopropylpyrimidin-4-yl)-3H-imidazo[4,5-b]pyridin-5-yl)-N-methylpiperidine-3-carboxamide] | 290 nM | –
O=C([C@@H]1CCCN(c2ccc3nc(C4(c5cccnn5)CC4)[nH]c3n2)C1)N1CCCC1 [Example 222, (R)-(1-(2-(1-(Pyridazin-3-yl)cyclopropyl)-3H-imidazo[4,5-b]pyridin-5-yl)piperidin-3-yl)(pyrrolidin-1-yl)methanone] | 531 nM | –
Cn1ncnc1C1(c2nc3ccc(N4CCC[C@@H](C(=O)N5CCCC5)C4)nc3[nH]2)CC1 [Example 223, (R)-(1-(2-(1-(1-Methyl-1H-1,2,4-triazol-5-yl)cyclopropyl)-3H-imidazo[4,5-b]pyridin-5-yl)piperidin-3-yl)(pyrrolidin-1-yl)methanone] | 1370 nM | –
[(R)-1-{2-[1-(4-Chloro-1H-pyrazol-1-yl)cyclopropyl]-3H-imidazo[4,5-b]pyridin-5-yl}(2,2,6,6-^2H4)piperidin-3-yl](pyrrolidin-1-yl)methanone [Example 190] | – | IC50 (Human DGAT2 (hDGAT2); read-out: DGAT2 IC50): 35.9 nM
